Measured values from the supplement of paper PMC10307832.

Experiments:
Assay in all cases: relative viability (nuclei count vs DMSO), 5 days (fraction); higher = more cells survive
Serdemetan + Vorinostat = compound: c1ccc2c(CCNc3ccc(Nc4ccncc4)cc3)c[nH]c2c1 [Serdemetan] + O=C(CCCCCCC(=O)Nc1ccccc1)NO [Vorinostat] (partner 1 µM)
Method in brief: (§1)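 Medians of duplicate plates are given as relative viability. That measure is the nuclei count in treated wells divided by the count in vehicle wells. Counts were taken on 4× images of lung cancer cell lines in 1536-well plates, 5 days after pin-tool dosing the day after seeding with one drug alone or a fixed anchor-drug dose plus five library-drug doses (not always all listed) in √10 steps.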

Serdemetan + Alpelisib = compound: c1ccc2c(CCNc3ccc(Nc4ccncc4)cc3)c[nH]c2c1 [Serdemetan] + Cc1nc(NC(=O)N2CCC[C@H]2C(N)=O)sc1-c1ccnc(C(C)(C)C(F)(F)F)c1 [Alpelisib] (partner 2 µM)
Method in brief: as §1

Serdemetan + Linsitinib = compound: c1ccc2c(CCNc3ccc(Nc4ccncc4)cc3)c[nH]c2c1 [Serdemetan] + C[C@]1(O)C[C@@H](c2nc(-c3ccc4ccc(-c5ccccc5)nc4c3)c3c(N)nccn32)C1 [Linsitinib] (partner 1 µM)
Method in brief: as §1

Serdemetan + OSI-027 = compound: c1ccc2c(CCNc3ccc(Nc4ccncc4)cc3)c[nH]c2c1 [Serdemetan] + COc1cccc2cc(-c3nc([C@H]4CC[C@H](C(=O)O)CC4)n4ncnc(N)c34)[nH]c12 [OSI-027] (partner 0.5 µM)
Method in brief: as §1

Cell Line	relative viability (Serdemetan + Vorinostat; first compound 0.04 µM)	relative viability (Serdemetan + Vorinostat; first compound 0.1265 µM)	relative viability (Serdemetan + Vorinostat; first compound 0.4 µM)	relative viability (Serdemetan + Vorinostat; first compound 1.265 µM)	relative viability (Serdemetan + Vorinostat; first compound 4 µM)	relative viability (Serdemetan + Alpelisib; first compound 0.04 µM)	relative viability (Serdemetan + Alpelisib; first compound 0.1265 µM)	relative viability (Serdemetan + Alpelisib; first compound 0.4 µM)	relative viability (Serdemetan + Alpelisib; first compound 1.265 µM)	relative viability (Serdemetan + Alpelisib; first compound 4 µM)	relative viability (Serdemetan + Linsitinib; first compound 0.04 µM)	relative viability (Serdemetan + Linsitinib; first compound 0.1265 µM)	relative viability (Serdemetan + Linsitinib; first compound 0.4 µM)	relative viability (Serdemetan + Linsitinib; first compound 1.265 µM)	relative viability (Serdemetan + Linsitinib; first compound 4 µM)	relative viability (Serdemetan + OSI-027; first compound 0.04 µM)	relative viability (Serdemetan + OSI-027; first compound 0.1265 µM)	relative viability (Serdemetan + OSI-027; first compound 0.4 µM)	relative viability (Serdemetan + OSI-027; first compound 1.265 µM)	relative viability (Serdemetan + OSI-027; first compound 4 µM)
NCI-H2087	0.864	0.316	0.527	0.226	0.213	1.1	0.986	1.09	0.669	0.532	0.907	0.842	0.945	0.608	0.505	0.548	0.641	0.573	0.324	0.241
NCI-H1437	0.771	0.786	0.79	0.623	0.616	0.936	1.01	0.896	0.807	0.802	0.993	1.02	0.975	0.861	0.687	0.872	0.865	0.868	0.585	0.729
NCI-H650	0.352	0.478	0.51	0.405	0.46	0.965	1.15	1.11	0.92	0.67	0.681	0.922	0.883	0.737	0.688	0.471	0.502	0.578	0.456	0.584
COR-L23	0.441	0.434	0.392	0.412	0.362	0.788	0.767	0.763	0.821	0.703	0.906	0.752	0.891	0.688	0.788	0.796	0.712	0.799	0.658	0.744
COR-L 105	0.863	0.96	0.758	0.861	0.645	0.906	1.08	0.922	1.04	0.865	0.86	1.14	0.847	1.04	0.845	0.749	0.649	0.452	0.722	0.71
LK-2	0.394	0.371	0.372	0.221	0.461	1.1	1.28	1.25	1.06	0.652	0.48	0.545	0.527	0.49	0.491	0.205	0.23	0.216	0.193	0.214
201T	0.974	0.996	0.883	0.879	0.715	0.965	0.995	1.01	0.939	0.883	1.04	1.03	1.01	1.02	0.781	0.584	0.676	0.76		0.664
HCC-44	1.05	1.12	1.05	1.05	0.825	0.714	0.772	0.75	0.532	0.636	0.637	0.634	0.598	0.426	0.424	0.482	0.498	0.598	0.429	0.452
NCI-H596	0.568	0.543	0.578	0.428	0.425	0.477	0.498	0.481	0.369	0.298	1.14	1.04	0.789	0.623	0.541	0.888	0.699	0.614	0.494	0.519
H3255	0.701	0.797		0.487	0.73	0.657	0.693	0.585	0.683	0.525	0.938	0.832	0.931	1.03	0.814	0.587	0.675	0.613	0.573	0.518
NCI-H647	0.517	0.693	0.645	0.516	0.483	1.16	1.2	1.05	0.762	0.671	1.06	1.11	1.11	0.944	0.982	0.609	0.634	0.751	0.585	0.648
NCI-H2023	0.48	0.708	0.53	0.343	0.258	0.613	0.651	0.521	0.375	0.266	0.708	0.766	0.613	0.601	0.253	0.395	0.383	0.324	0.255	0.191
NCI-H23	0.664	0.695	0.643		0.517	0.674	0.682	0.577	0.538	0.596	0.571	0.684	0.747	0.504	0.561	0.636	0.702	0.607	0.43	0.531
NCI-H1944	0.485	0.628	0.635	0.339	0.294	0.806	0.753	0.715		0.453	1.23	1.17	1.06		0.6	0.435	0.42	0.394	0.331	0.379
NCI-H1793	0.808	0.671	0.439	0.286	0.397	0.704	0.738	0.754	0.53	0.347	0.978	0.834	0.574	0.525	0.336	0.385	0.251	0.236	0.186	0.179
NCI-H520	0.785	0.688	0.683	0.438	0.548	0.729	0.807	1.09	0.726	0.786	0.973	1.02	0.817	0.808	0.774	0.283	0.273	0.297		0.293
NCI-H460	0.595	0.435	0.296	0.0775	0.0723	0.506	0.415	0.333	0.171	0.0988	0.747	0.71	0.537	0.153	0.104	0.61	0.691	0.641	0.342	0.0861

Cell Line	relative viability (Serdemetan + Vorinostat; first compound 0.04 µM)	relative viability (Serdemetan + Vorinostat; first compound 0.1265 µM)	relative viability (Serdemetan + Vorinostat; first compound 0.4 µM)	relative viability (Serdemetan + Vorinostat; first compound 1.265 µM)	relative viability (Serdemetan + Vorinostat; first compound 4 µM)	relative viability (Serdemetan + Alpelisib; first compound 0.04 µM)	relative viability (Serdemetan + Alpelisib; first compound 0.1265 µM)	relative viability (Serdemetan + Alpelisib; first compound 0.4 µM)	relative viability (Serdemetan + Alpelisib; first compound 1.265 µM)	relative viability (Serdemetan + Alpelisib; first compound 4 µM)	relative viability (Serdemetan + Linsitinib; first compound 0.04 µM)	relative viability (Serdemetan + Linsitinib; first compound 0.1265 µM)	relative viability (Serdemetan + Linsitinib; first compound 0.4 µM)	relative viability (Serdemetan + Linsitinib; first compound 1.265 µM)	relative viability (Serdemetan + Linsitinib; first compound 4 µM)	relative viability (Serdemetan + OSI-027; first compound 0.04 µM)	relative viability (Serdemetan + OSI-027; first compound 0.1265 µM)	relative viability (Serdemetan + OSI-027; first compound 0.4 µM)	relative viability (Serdemetan + OSI-027; first compound 1.265 µM)	relative viability (Serdemetan + OSI-027; first compound 4 µM)
EKVX	0.798	0.719		0.462	0.546	0.876	0.911	0.804	0.676	0.619	0.997	0.971	0.861	0.968	0.639	0.731	0.708	0.671		0.588
NCI-H358	0.677	0.689	0.612	0.402	0.461	0.86	0.946	0.906	0.679	0.734	0.672	0.781	0.679	0.465	0.651	0.725	0.816	0.969	0.487	0.536
EPLC-272H	0.396	0.654	0.532	0.304	0.218	0.968	0.834	0.881	0.647	0.843	1.29	1.18	1.07	1	0.703	0.285	0.355	0.296	0.248	0.272
NCI-H1395	0.574	0.848	0.696	0.526	0.508	0.863	0.903	1.12	0.912	0.564	0.993	1.17	1.09	0.874	0.638	0.526	0.637	0.734	0.651	0.418
NCI-H2126	0.806	0.913	0.628	0.669	0.659	0.721	0.753	0.741	0.575	0.762	0.745	0.736	0.638	0.642	0.686	0.7	0.757	0.611	0.574	0.625
LXF-289	0.754	0.77	0.718	0.656	0.646	1.02	1.01	0.937	0.844	0.844	0.953	0.95	0.863	0.785	0.765	0.802	0.847	0.811	0.691	0.729
NCI-H2009	0.583	0.695	0.805	0.638	0.558	1.18	1.11	1.08	1.12	0.964	1.18	1.2	1.13	1	0.979	0.653	0.678	0.628	0.55	0.466
NCI-H2405	0.968	0.973	0.91	0.788	0.846	0.881	0.918	0.826	0.772	0.543	0.864	0.997	0.964	0.897	0.628	0.591	0.602	0.657	0.622	0.594
NCI-H1755	0.648	0.811	0.741	0.54	0.459	0.893	0.898	0.815	0.499	0.456	0.956	0.941	0.881	0.556	0.653	0.725	0.687	0.686	0.563	0.568
HCC-78	0.464	0.432	0.483	0.388	0.339	0.337	0.36	0.349	0.364	0.262	0.505	0.525	0.542	0.499	0.257	0.401	0.297	0.321	0.308	0.289
LOU-NH91	0.954	0.954			0.935	0.741	0.677		0.761	0.679	0.962	1.01		0.894	0.83	0.703	0.681	0.456	0.692	0.784
NCI-H3122	1.05	0.969	0.928	0.587	0.877	0.809	0.715	0.779		0.771	1.09	0.946	1.05		1.07	0.98	0.949	0.943	0.322	0.974
HCC-827	0.827	0.466		0.597	0.449	0.924	0.934		0.723	0.6	0.892	0.9		0.689	0.762	0.787	0.743		0.696	0.627
SK-LU-1	0.746	0.821	0.746	0.598	0.451	1.14	1.07	0.944	0.758	0.669	1.13	1.14	1.07	1.03	0.732	0.424	0.405	0.405		0.246
NCI-H1975	0.718	0.725	0.697	0.743	0.687	0.68	0.675	0.666	0.637	0.803	1.01	1.04	0.974	0.985	1.19	0.851	0.753	0.775		0.711
NCI-H1651	0.573	0.386	0.509	0.492	0.336	0.889	0.78	0.65	0.371	0.213	0.822	0.724	0.509	0.355	0.268	0.627	0.571	0.777	0.369	0.313
